Tests used:
[1] = target: T1, biotinylated wild-type menin and MLL-AF9 fusion protein (menin/MLL binding) (Homo sapiens, UniProt O00255); assay: Assay 1: menin/MLL binding AlphaLISA assay, wild-type menin; conditions: Table 30; column head does not say wild-type or mutated menin
T1 construct: made in house; host or cells: menin: E. coli; MLL-AF9-FLAG: HEK293 cells, used as cleared lysate
T1 sequence (O00255 1-610): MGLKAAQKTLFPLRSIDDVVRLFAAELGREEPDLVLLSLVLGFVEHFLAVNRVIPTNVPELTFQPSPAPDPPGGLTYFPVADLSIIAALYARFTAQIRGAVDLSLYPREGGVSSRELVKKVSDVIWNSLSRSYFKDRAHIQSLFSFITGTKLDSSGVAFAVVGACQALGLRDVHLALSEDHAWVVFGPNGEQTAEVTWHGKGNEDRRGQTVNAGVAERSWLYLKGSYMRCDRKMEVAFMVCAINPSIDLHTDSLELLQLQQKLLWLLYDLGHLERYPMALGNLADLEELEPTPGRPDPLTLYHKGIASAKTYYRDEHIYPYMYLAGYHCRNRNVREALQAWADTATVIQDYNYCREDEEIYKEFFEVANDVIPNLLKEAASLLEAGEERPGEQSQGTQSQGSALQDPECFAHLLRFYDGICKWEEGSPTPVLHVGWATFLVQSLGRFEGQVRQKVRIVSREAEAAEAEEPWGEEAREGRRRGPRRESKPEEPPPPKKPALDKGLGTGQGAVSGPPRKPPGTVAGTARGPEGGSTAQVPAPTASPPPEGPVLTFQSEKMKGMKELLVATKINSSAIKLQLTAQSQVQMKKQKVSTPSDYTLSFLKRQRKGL
Outline: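 Compound was preincubated 30 min at room temperature with biotinylated menin (5 nM) and MLL-AF9-FLAG lysate from HEK293 cells, pH 7.4 buffer with 5% DMSO and DTT. Bead-based Alpha signal after 60 min with streptavidin donor and anti-FLAG acceptor beads; four-parameter logistic fit gave IC50.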

[2] = system: human acute monocytic leukemia cell line MV-4-11; assay: Assay 2: cell proliferation assay (ATP quantitation, CellTiter-Glo), MV-4-11; assay type: cell-based; conditions: MV-4-11 cells
Method: Potencies of inhibitor compounds against cell proliferation was assessed against the human acute monocytic leukemia cell line MV-4-11 (ATCC® CRL-9591™) based on ATP quantitation. MV-4-11 cells or toxicity control HL-60 cells (ATCC® CCL-240™) were incubated in 96-well tissue culture plates (1.67×10^4 cells in 200 μL culture media containing 10% FBS per well) with or without test compound for 72 h at 37° C., 5% CO2. After incubation, each well was mixed by pipetting and 95 μL from each well was transferred to a well in 96-well black OptiPlate® plates (PerkinElmer). An equal volume of CellTiter-Glo® Luminescent Cell Viability Assay reagent (Promega) was added to each well, followed by mixing for 5 min on an orbital plate shaker. Luminescence was measured on a Wallac EnVision 2104 Multilabel Reader (PerkinElmer) to quantitate ATP.

Structure (SMILES) | IC50 [1] | EC50 ([2]; 72 h) | EC50 ([2]; Homo sapiens, MV4-11, 72 h)
Cn1c(-c2cc(F)ccc2Oc2cncnc2N2CCC3(CCN(Cc4ccc5[nH]c(=O)[nH]c5c4)C3)C2)c(C2CC2)ccc1=O (single isomer, unassigned) [Example 29B, 5-((7-(5-(2-(3-cyclopropyl-1-methyl-6-oxo-1,6-dihydropyridin-2-yl)-4-fluorophenoxy)pyrimidin-4-yl)-2,7-diazaspiro[4.4]nonan-2-yl)methyl)-1,3-dihydro-2H-benzo[d]imidazol-2-one] | < 100 nM | 100 to 1000 nM | –
CC(C)c1ccccc1-c1cc(F)ccc1Oc1cncnc1N1CCC2(CCN(Cc3ccc4[nH]c(=O)[nH]c4c3)C2)C1 (single isomer, unassigned) [Example 41A, 5-((7-(5-((5-fluoro-2′-isopropyl-[1,1′-biphenyl]-2-yl)oxy)pyrimidin-4-yl)-2,7-diazaspiro[4.4]nonan-2-yl)methyl)-1H-benzo[d]imidazol-2(3H)-one] | < 100 nM | – | < 100 nM
CC(O)c1ccccc1-c1cc(F)ccc1Oc1cncnc1N1CCC2(CCN(Cc3ccc4[nH]c(=O)[nH]c4c3)C2)C1 (single isomer, unassigned) [Example 60A, 5-((7-(5-((5-fluoro-2′-(1-hydroxyethyl)-[1,1′-biphenyl]-2-yl)oxy)pyrimidin-4-yl)-2,7-diazaspiro[4.4]nonan-2-yl)methyl)-1H-benzo[d]imidazol-2(3H)-one] | < 100 nM | – | < 100 nM
Cn1c(-c2cc(F)ccc2Oc2cncnc2N2CCC3(CCN(Cc4ccc5c(c4)[nH]c(=O)n5CCO)C3)C2)c(C2CC2)ccc1=O (single isomer, unassigned) [Example 81A, 5-((7-(5-(2-(3-cyclopropyl-1-methyl-6-oxo-1,6-dihydropyridin-2-yl)-4-fluorophenoxy)pyrimidin-4-yl)-2,7-diazaspiro[4.4]nonan-2-yl)methyl)-1-(2-hydroxyethyl)-1H-benzo[d]imidazol-2(3H)-one] | < 100 nM | – | 100 to 1000 nM

More lines, now with the values ahead:

IC50 [1] | EC50 ([2]; 72 h) | EC50 ([2]; Homo sapiens, MV4-11, 72 h) | Structure (SMILES)
< 100 nM | < 100 nM | – | CC(C)c1ccccc1-c1cc(F)ccc1Oc1cncnc1N1CCC2(CCN(Cc3ccc4[nH]c(=O)[nH]c4c3)C2)C1 (single isomer, unassigned) [Example 41B, 5-((7-(5-((5-fluoro-2′-isopropyl-[1,1′-biphenyl]-2-yl)oxy)pyrimidin-4-yl)-2,7-diazaspiro[4.4]nonan-2-yl)methyl)-1H-benzo[d]imidazol-2(3H)-one]
< 100 nM | – | < 100 nM | N#Cc1ccc(-c2cc(F)ccc2Oc2cncnc2N2CCC3(CCN(Cc4ccc5[nH]c(=O)[nH]c5c4)C3)C2)c(C2CC2)c1 (single isomer, unassigned) [Example 42A, 2-cyclopropyl-5′-fluoro-2′-((4-(7-((2-oxo-2,3-dihydro-1H-benzo[d]imidazol-5-yl)methyl)-2,7-diazaspiro[4.4]nonan-2-yl)pyrimidin-5-yl)oxy)-[1,1′-biphenyl]-4-carbonitrile]
< 100 nM | < 100 nM | – | N#Cc1ccc(-c2cc(F)ccc2Oc2cncnc2N2CCC3(CCN(Cc4ccc5[nH]c(=O)[nH]c5c4)C3)C2)c(C2CC2)c1 (single isomer, unassigned) [Example 42B, 2-cyclopropyl-5′-fluoro-2′-((4-(7-((2-oxo-2,3-dihydro-1H-benzo[d]imidazol-5-yl)methyl)-2,7-diazaspiro[4.4]nonan-2-yl)pyrimidin-5-yl)oxy)-[1,1′-biphenyl]-4-carbonitrile]
< 100 nM | < 100 nM | – | Cn1c(-c2cc(F)ccc2Oc2cncnc2N2CCC3(CCN(Cc4ccc5c(c4)[nH]c(=O)n5CCO)C3)C2)c(C2CC2)ccc1=O (single isomer, unassigned) [Example 81B, 5-((7-(5-(2-(3-cyclopropyl-1-methyl-6-oxo-1,6-dihydropyridin-2-yl)-4-fluorophenoxy)pyrimidin-4-yl)-2,7-diazaspiro[4.4]nonan-2-yl)methyl)-1-(2-hydroxyethyl)-1H-benzo[d]imidazol-2(3H)-one]

Reference: patent US12312359B2 (Vitae Pharmaceuticals, LLC, priority 2016, dated 2025)
